The source of these data is PubChem BioAssay (NCI).

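Assay format: 96-well plates, 48-hour exposure. Here, GI50 denotes the concentration required for 50% inhibition of growth. At the TGI there is no net growth.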

One experiment has as its system OVCAR-8 ovarian. The experiment in a line: NCI tumour cell line growth inhibition, 48 h.
On to `Fc1cc2[nH]ncc2c2c3c(c(-c4cn[nH]c4)nc12)CCCC3`, for which the GI50 was 1.48 µM and the TGI is more than 30.2 µM.

As to `COc1cc(OC)cc(-c2cc(=O)c3c(OC)c(OC)c(OC)c(OC)c3o2)c1`, the TGI was more than 100 µM.

The molecule `C=C(Br)C(C)(Br)CCC(Br)C(C)(C)Cl` (stereo not drawn) yielded a TGI of 35.7 µM.

Molecule `CSc1nc(NC2OCC(OC(C)=O)C(OC(C)=O)C2OC(C)=O)c(N=CC=Nc2c(NC3OCC(OC(C)=O)C(OC(C)=O)C3OC(C)=O)nc(SC)[nH]c2=O)c(=O)[nH]1` (stereo not drawn) returned a TGI of more than 100 µM.

For the molecule `O=C1c2cc3c(cc2-c2c1c1ccc(F)cc1c(=O)n2CCCNCCO)OCO3`, the GI50 was 0.0538 µM and the TGI turned out to be 0.356 µM.

For `O=C1OC(O)[C@@H]2[C@H]1[C@H]1CC[C@@H]2O1` (stereo partly drawn), the GI50 was more than 100 µM and the TGI is more than 100 µM.

On to `COc1cccc(-c2nc(-c3ccc(NC(=O)C(C)C)cc3)[nH]c2-c2ccnc(Br)c2)c1`, for which the GI50 was 3.61 µM and the TGI is more than 100 µM.

As for `COc1ccc(-c2nnc(COc3ccc(NC(=O)Nc4cc(C(F)(F)F)cc(C(F)(F)F)c4)cc3F)o2)cc1`, the GI50 was 1.89 µM and the TGI is 5.85 µM.

For the molecule `COc1ccc(/C=C(/C#N)n2nnc3cccc(F)c32)cc1`, the GI50 was 1.97 µM and the TGI was more than 100 µM.

For another experiment, the system named is U251 CNS. Description: NCI tumour cell line growth inhibition, 48 h.
Turning to `O=C(Nc1ccc(Cl)cc1)c1cccc(NC2=C(Cl)C(=O)N(Cc3ccccc3)C2=O)c1`, the GI50 was 9.92 µM and the TGI worked out at 21.5 µM.

Regarding `Nc1ncnc2n[nH]c(Nc3ccc(F)cc3)c12`, the GI50 was 28.6 µM and the TGI was more than 100 µM.

As to `CCN(CC)c1ccc(-c2cc(-c3cc(OC)c(OC)c(OC)c3)nc(N3CCOCC3)c2C#N)cc1`, the GI50 was 2.48 µM and the TGI is more than 100 µM.

For `CC(=O)OC1=CC(n2cc(F)c(=O)[nH]c2=O)OC(C)C1=O` (stereo not drawn), the TGI was more than 100 µM.

Consider `CC(=O)[C@@]12O[C@@H]1CC1C3CCC4=CC(O)CCC4(C)C3CCC12C` (stereo partly drawn), for which the GI50 was 19.1 µM and the TGI was found to be 41.3 µM.

For `NC1(C(=O)OCc2ccccc2)CCCC1`, the TGI came to 40.3 µM.

For the molecule `Cc1cc(/C=C/c2ccc3cc(N(C)C)ccc3[n+]2C)c(C)n1-c1ccccc1`, the GI50 is 0.129 µM and the TGI was 1.16 µM.

As to `Cn1cnc([N+](=O)[O-])c1S(=O)(=O)Oc1cccc2ccccc12`, the GI50 was 8.89 µM and the TGI was 34.7 µM.

`Fc1cc2[nH]ncc2c2c3c(c(-c4cn[nH]c4)nc12)CCCC3`: the GI50 was 0.55 µM and the TGI worked out at 13.4 µM.

On to `COc1cc(OC)cc(-c2cc(=O)c3c(OC)c(OC)c(OC)c(OC)c3o2)c1`, for which the TGI was more than 100 µM.

Molecule `C=C(Br)C(C)(Br)CCC(Br)C(C)(C)Cl` (stereo not drawn) came in with a TGI of 29.7 µM.

For the molecule `CSc1nc(NC2OCC(OC(C)=O)C(OC(C)=O)C2OC(C)=O)c(N=CC=Nc2c(NC3OCC(OC(C)=O)C(OC(C)=O)C3OC(C)=O)nc(SC)[nH]c2=O)c(=O)[nH]1` (stereo not drawn), the TGI was more than 100 µM.

Turning to `O=C1c2cc3c(cc2-c2c1c1ccc(F)cc1c(=O)n2CCCNCCO)OCO3`, the GI50 was 0.0225 µM and the TGI turned out to be 0.102 µM.

For `O=C1OC(O)[C@@H]2[C@H]1[C@H]1CC[C@@H]2O1` (stereo partly drawn), the GI50 was more than 100 µM and the TGI was more than 100 µM.

On to `COc1cccc(-c2nc(-c3ccc(NC(=O)C(C)C)cc3)[nH]c2-c2ccnc(Br)c2)c1`, for which the GI50 is 2.08 µM and the TGI was more than 100 µM.

As to `COc1ccc(-c2nnc(COc3ccc(NC(=O)Nc4cc(C(F)(F)F)cc(C(F)(F)F)c4)cc3F)o2)cc1`, the GI50 is 1.54 µM and the TGI was found to be 3.45 µM.

Regarding `COc1ccc(/C=C(/C#N)n2nnc3cccc(F)c32)cc1`, the GI50 is 1.79 µM and the TGI was more than 100 µM.

The subject of another experiment is UACC-257 melanoma. Description: NCI tumour cell line growth inhibition, 48 h.
With `O=C(Nc1ccc(Cl)cc1)c1cccc(NC2=C(Cl)C(=O)N(Cc3ccccc3)C2=O)c1`, the GI50 is 15 µM and the TGI came to 43.3 µM.

`Nc1ncnc2n[nH]c(Nc3ccc(F)cc3)c12`: the GI50 was 67.7 µM and the TGI is more than 100 µM.

Regarding `CCN(CC)c1ccc(-c2cc(-c3cc(OC)c(OC)c(OC)c3)nc(N3CCOCC3)c2C#N)cc1`, the GI50 is 2.57 µM and the TGI is more than 100 µM.

The molecule `CC(=O)OC1=CC(n2cc(F)c(=O)[nH]c2=O)OC(C)C1=O` (stereo not drawn) gave a TGI of more than 100 µM.

As to `CC(=O)[C@@]12O[C@@H]1CC1C3CCC4=CC(O)CCC4(C)C3CCC12C` (stereo partly drawn), the GI50 was more than 100 µM and the TGI is more than 100 µM.

With `NC1(C(=O)OCc2ccccc2)CCCC1`, the TGI turned out to be 41.9 µM.

For the molecule `Cc1cc(/C=C/c2ccc3cc(N(C)C)ccc3[n+]2C)c(C)n1-c1ccccc1`, the GI50 is 0.184 µM and the TGI was 0.951 µM.

With `Cn1cnc([N+](=O)[O-])c1S(=O)(=O)Oc1cccc2ccccc12`, the GI50 was 2.36 µM and the TGI stood at 6.29 µM.

As for `Fc1cc2[nH]ncc2c2c3c(c(-c4cn[nH]c4)nc12)CCCC3`, the GI50 was 1.72 µM and the TGI was determined as 5.69 µM.

The molecule `COc1cc(OC)cc(-c2cc(=O)c3c(OC)c(OC)c(OC)c(OC)c3o2)c1` gave a TGI of more than 100 µM.

`C=C(Br)C(C)(Br)CCC(Br)C(C)(C)Cl` (stereo not drawn) yielded a TGI of 37.4 µM.

`CSc1nc(NC2OCC(OC(C)=O)C(OC(C)=O)C2OC(C)=O)c(N=CC=Nc2c(NC3OCC(OC(C)=O)C(OC(C)=O)C3OC(C)=O)nc(SC)[nH]c2=O)c(=O)[nH]1` (stereo not drawn): the TGI was more than 100 µM.

On to `O=C1c2cc3c(cc2-c2c1c1ccc(F)cc1c(=O)n2CCCNCCO)OCO3`, for which the GI50 is 0.123 µM and the TGI is 0.853 µM.

With `O=C1OC(O)[C@@H]2[C@H]1[C@H]1CC[C@@H]2O1` (stereo partly drawn), the GI50 is more than 87 µM and the TGI was more than 100 µM.

For `COc1cccc(-c2nc(-c3ccc(NC(=O)C(C)C)cc3)[nH]c2-c2ccnc(Br)c2)c1`, the GI50 was 4.02 µM and the TGI was more than 100 µM.

Consider `COc1ccc(-c2nnc(COc3ccc(NC(=O)Nc4cc(C(F)(F)F)cc(C(F)(F)F)c4)cc3F)o2)cc1`, for which the GI50 is 2.08 µM and the TGI is 5.51 µM.

In the case of `COc1ccc(/C=C(/C#N)n2nnc3cccc(F)c32)cc1`, the GI50 is 77.8 µM and the TGI was more than 100 µM.
